This is an account of results in publication PMC7177849, “Gut Microbial Catabolites of Tryptophan Are Ligands and Agonists of the Aryl Hydrocarbon Receptor: A Detailed Characterization” (International Journal of Molecular Sciences, 2020).

Series [1] relates to CYP1A1 mRNA. Description: CYP1A1 mRNA (qRT-PCR) in intestinal LS180 cells. The series is classed as cell-based, human. The procedure:
(§1) Figure 4 Effects of MICT on the induction of CYP1A1 mRNA in human hepatic and intestinal cells. Cultured cells were incubated for 24 h with the vehicle (DMSO; 0.1% v/v) and tested MICT in the presence or absence of TCDD (10 nM). RT-PCR determined the level of CYP1A1 mRNA, and the data were normalized per GAPDH mRNA level. […] (A,B) Experiments in three consecutive passages of human colon adenocarcinoma cell line LS180 in the absence (A) and the presence (B) of 10 nM TCDD. The bar graphs show the percentage of maximal induction attained by TCDD and are expressed as the mean ± SD. (C) Experiments in three consecutive passages of wild-type (AhR^+/^+) and AhR-knockout (AhR^−/^−) HT-29 cells. […] (D) Primary human hepatocytes from three different donors (LH79, Hep2201020, and Hep2201021).
(§2) Total RNA was isolated using TRI Reagent® (Sigma Aldrich, Prague, Czech Republic). cDNA was synthesized using M-MuLV reverse transcriptase (New England Biolabs, Ipswich, MA, USA). The reverse transcription was performed at 42 °C for 60 min using Random Primers 6 (New England Biolabs, Ipswich, MA, USA) and diluted in a 1:4 ratio by PCR-grade water. The quantitative reverse transcriptase-polymerase chain reaction (qRT-PCR) was performed on the Lightcycler 480 II using the LightCycler ® 480 Probes Master (Roche Diagnostic Corporation, Prague, Czech Republic). The levels of CYP1A1 and GAPDH mRNAs were determined using the Universal Probe Library probes (UPL; Roche Diagnostic Corporation, Prague, Czech Republic) in combination with specific primers, using a protocol described elsewhere. All measurements were performed in triplicates, and the gene expression was normalized to glyceraldehyde-3-phosphate dehydrogenase (GAPDH) as a house-keeping gene. The data were processed using the delta-delta Ct method and expressed as a fold induction over the negative control (DMSO) or as a percentage of the positive control (maximal induction by TCDD).
Background: In qPCR the cycle at which signal appears reflects the starting amount.

Series [2] concerns CYP1A1 mRNA. Description: CYP1A1 mRNA (qRT-PCR) in wild-type and AhR-knockout HT-29 cells. The series is classed as cell-based, human. The method, then: as §1
CRISPR/Cas9 knockout of the AhR in HT-29 cells: A CRISPR/Cas9 expression vector with GFP, pSpCas9(BB)-2A-GFP (PX458) (#48138; Addgene, Cambridge, MA, USA) was used for integration of the gRNA complementary to exon 2 of the AHR gene. 4 × 10^5 cells were seeded in a 6-well plate and transfected (at 60–70% confluence) with a mixture of vector DNA and Lipofectamine™ 3000 (Life Technologies) according to the manufacturer’s instructions. The transfected cells positive for GFP signal were sorted using BD Aria II Sorp (Becton Dickinson, Franklin Lakes, NJ, USA), in a single cell suspension into a 96-well plate. DNA isolation was performed by a QIAamp DNA Mini Kit (Qiagen, Hilden, Germany) according to the manufacturer’s instructions. The function of the CRISPR/Cas9 system was verified by the SURVEYOR mutation detection kit (Integrated DNA Technologies, Leuven, Belgium) according to the manufacturer’s instructions. The positive clones were checked for AhR expression by Western Blotting. PCR amplification products were purified using the QIAquick PCR Purification Kit (Qiagen) and integrated into a plasmid vector (pGEM_T Easy Vector Systems, Promega), and E.coli DHP α (MAX Efficiency DH5a Competent Cells, Thermo Fisher; Waltham, MA, USA) were transformed according to manufacturer’s instructions, DNA was isolated, and deletions in the AhR gene sequences were verified by sequencing (Mix2seq, Eurofins Genomic, Luxembourg).
as §2

In series [3] the test system is CYP1A1 mRNA. The series is described as follows: Summary of CYP1A1 gene expression in human hepatic and intestinal cells. The format is cell-based. The conditions noted are these: Table 1 summary class; CYP1A1. The procedure: as §1, §2
Setting [4] is: LS180 cells co-incubated with TCDD (10 nM), 24 h.
The mark [5] stands for this setting: colon HT-29 cells, wild-type, 24 h.

Read-outs that look alike come from different tables or passages of the source.

`Cc1c[nH]c2ccccc12` [3MI, skatole]: in series [1] (setting [4]), the “antagonistic effects on CYP1A1 mRNA” value was “antagonistic effects were observed primarily”. For the same compound, the “induction of CYP1A1 mRNA” value in series [1] (LS180 cells, 24 h) is “strong induction”; in series [2] (setting [5]) it was “weaker inducers”. Further, the “Gene Expression” value in series [3] is “strong inducer”.
Regarding `O=Cc1c[nH]c2ccccc12` [IA, indole-3-aldehyde], the “antagonistic effects on CYP1A1 mRNA” value in series [1] (setting [4]) is “antagonistic effects were observed primarily”. Besides, the “Gene Expression” value in series [3] was “inactive”.
With `O=C(O)/C=C/c1c[nH]c2ccccc12` [IAC, indole-3-acrylate], in series [1] (setting [4]), the “antagonistic effects on CYP1A1 mRNA” value is on record as “to a lesser extent”. For the same compound, the “induction of CYP1A1 mRNA” value in series [1] (LS180 cells, 24 h) is reported as “strong induction”; in series [2] (setting [5]), “strong induction”. The “Gene Expression” value in series [3] is “strong inducer”.
As to `NC(=O)Cc1c[nH]c2ccccc12` [IAD, indole-3-acetamide], the “induction of CYP1A1 mRNA” value is reported as “strong induction” in series [1] (LS180 cells, 24 h) and “strong induction” in series [2] (setting [5]). In addition, in series [3], the “Gene Expression” value was “strong inducer”.
`OCCc1c[nH]c2ccccc12` [IET, indole-3-ethanol]: the “Gene Expression” value in series [3] was “inactive”.
`O=C(O)C(O)Cc1c[nH]c2ccccc12` (stereo not shown) [ILA, indole-3-lactate]: in series [1] (setting [4]), the “antagonistic effects on CYP1A1 mRNA” value is given as “to a lesser extent”. Moreover, the “Gene Expression” value in series [3] is “inactive”.
Consider `c1ccc2[nH]ccc2c1` [IND, indole], for which, in series [1], the “antagonistic effects on CYP1A1 mRNA” value was “antagonistic effects were observed primarily” and the “induction of CYP1A1 mRNA” value is reported as “strong induction”. The “induction of CYP1A1 mRNA” value in series [2] is “weaker inducers”. The “Gene Expression” value in series [3] is reported as “strong inducer”.
Regarding `O=C(O)C(=O)Cc1c[nH]c2ccccc12` [IPY, indole-3-pyruvate], the “antagonistic effects on CYP1A1 mRNA” value in series [1] (setting [4]) was “antagonistic effects were observed primarily”. For the same compound, the “induction of CYP1A1 mRNA” value in series [1] (LS180 cells, 24 h) was “strong induction”; in series [2] (setting [5]), “strong induction”. Besides, the “Gene Expression” value in series [3] is “strong inducer”.
Turning to `NCCc1c[nH]c2ccccc12` [TA, tryptamine], the “induction of CYP1A1 mRNA” value in series [1] (LS180 cells, 24 h) is listed as “strong induction”; in series [2] (setting [5]), “weaker inducers”. Also, in series [3], the “Gene Expression” value is on record as “strong inducer”.
`Clc1cc2c(cc1Cl)Oc1cc(Cl)c(Cl)cc1O2` [TCDD, 2,3,7,8-tetrachlorodibenzo-p-dioxin, reference compound]: the CYP1A1 induction result in series [2] (AhR knock-out HT-29 variant, 24 h) was “nullified”.
